Data on two compounds can be found in paper PMC12889028, “Discovery and biological evaluation of novel N-aryl-N′-methylbenzodrazides against Schistosoma japonicum in vitro and in vivo” (Microbiology Spectrum, 2025).

Molecules are shown by their SMILES. Like-named read-outs stand apart in the source and are kept apart here.

Data set [1] relates to S. japonicum (Chinese strain). Briefly: In vivo antischistosomal assay in infected mice (worm burden, worm morphology, liver eggs). Details: species or system Schistosoma japonicum in ICR mice. Conditions: mice, oral 100 mg/kg/day for 5 days; for Number of worms, Adult: adult stage (treatment from 35 dpi, sacrifice 45 dpi); for Worm burden reduction (WBR), Juvenile: juvenile stage (from 9 dpi); for Number of worms, Juvenile: juvenile stage (treatment from 9 dpi, sacrifice 45 dpi). As to the method:
(§1) Lead compounds 5, 18, and 41 (100 mg/kg) were orally administered once daily for 5 consecutive days to infected mice (n = 6/group) during two therapeutic windows: (i) Juvenile stage: treatment initiated at 9 dpi, terminal sacrifice at 45 dpi; (ii) adult stage: treatment initiated at 35 dpi, terminal sacrifice at 45 dpi. Positive controls received praziquantel (PZQ, 100 mg/kg/day ×5 days); negative controls received PBS (0.3 mL). Mice treated at 9 dpi were euthanized 36 days post-treatment; those treated at 35 dpi were euthanized 10 days post-treatment. Adult worms were perfused from the hepatic portal system and mesenteric veins. Parasite burden was quantified by worm enumeration, and worm burden reduction (WBR) was calculated:
WBR (%)=[1−Mean worm count (treated) / Mean worm count (control)]×100% .

The test system of data set [2] is adult worms of S. japonicum (Chinese strain). As to the kind of experiment: microbe, parasite or virus in culture. As to conditions: for mortality at 100 µM / LC50: Schistosoma japonicum; for LC50: read-out: LC50 (72 h).
The subject of another data set is Schistosoma mansoni. More on the design: method as in PMID 25583726. As to conditions: S. mansoni mouse model; cited from earlier work.
Another data set in a line: Acute oral toxicity. Type of data set: in vivo. As to conditions: ICR, mouse, in vivo, po, single oral dose, healthy ICR mice. How it is done: (§2) ICR mice (n = 10/group), aged 6 to 8 weeks, received a single oral dose of compounds 5, 18, and 41 (732–2,234 mg/kg). LD50 values were determined by Probit analysis (SPSS 26.0).
The test system of a further data set is healthy mice. Briefly: Acute oral toxicity. Type of data set: in vivo. As to conditions: single oral dose, healthy ICR mice. As to the method: as §2
A further data set deals with adult S. japonicum worms. As to the kind of experiment: SEM examination in vitro of tegumental damage. As to conditions: 100 μM. Type of data set: cell-based, Schistosoma japonicum. As to the method: Adult S. japonicum worms (male/female) underwent standardized fixation after in vitro exposure to compounds 5, 18, and 41 over a period of 12 h. First, the samples were immersed in 2.5% glutaraldehyde (prepared with 40 mL 0.2 M phosphate-buffered saline [PBS, pH 7.4], 5 mL 50% glutaraldehyde stock, and 55 mL ultrapure water) at 4°C for 24 h. After triple washes in PBS for 5 min each, worms were rinsed with deionized water for 10 min. The next dehydration sequence included ethanol gradient (50%, 70%, 80%, 90%, 100%; 5 min/step) and tert-butanol gradient (50%, 70%, 90%, 100%; 10 min/step). The worms were freeze-dried, directly sputter-covered with a thin gold layer using a Sputter Coater, and imaged using a scanning electron microscope (Quanta 450).

In data set [3] the test system is HepG2 (human liver cancer) cells. Briefly: Cytotoxicity MTT assay, HepG2. Conditions: Homo sapiens, HepG2, 48 h incubation. Type of data set: cell-based. As to the method: (§3) The cytotoxicity of compounds 5, 18, and 41 against human liver cancer (HepG2) and human breast cancer (MCF-7) cell lines in vitro was evaluated using the MTT assay, with cisplatin as a positive control. Cells were plated into 96-well plates and incubated in 100 μL of Dulbecco’s modified Eagle’s medium for 24 h. Test compounds at specified final concentrations were then added to the culture medium. After 48 h incubation, MTT dye (10 μL, 0.5 mg/mL) was added, and cells were incubated for an additional 4 h at 37°C in 5% CO2. Formazan crystals were dissolved in 100 μL DMSO per well, and absorbance at 570 nm (OD570) was measured using an ELx800 microplate reader (Bio-Tek, Winooski, VT, USA) with background subtraction. Cytotoxicity was expressed as IC50 (the concentration causing 50% reduction in cell growth compared to untreated controls). Experiments were performed in triplicate, with results presented as mean ± standard deviation.

Data set [4] has as its system MCF-7 (human breast cancer) cells. As to the kind of experiment: Cytotoxicity MTT assay, MCF-7. Type of data set: cell-based. Conditions: Homo sapiens, MCF7, 48 h incubation. As to the method:
as §3
Background: Formazan colour is commonly taken as a measure of viable cells.

The nature of data set [5]: Serum hepatic/renal function profiling of infected, treated mice. Type of data set: in vivo, ICR mice. As to conditions: for Serum GGT: normal range 1–15 U/L; for Serum TBIL: normal range 1.7–15.4 µM; for Serum BUN: normal range 4.9–10.4 mM; for Serum ALT: normal range 28–132 U/L; for Serum AST: normal range 59–247 U/L. How it is done:
Following maturation, Schistosoma parasites initiate oviposition, with a proportion of eggs migrating via the circulatory system to hepatic tissues. This ectopic deposition induces granuloma formation that subsequently elicits a cascade of immune-mediated pathologies, ultimately compromising hepatic and renal functions in murine models. To evaluate therapeutic efficacy, retro-orbital blood sampling was performed for comprehensive hepatic function profiling, enabling systematic assessment of pharmacological impacts on schistosomiasis-associated organ damage.
as §1, with “calculated: […]” for “calculated:”

Setting [6] is: 24 h, read-out: Mortality (%) 24 h, 100 μM, 24 h, adult worms in vitro.
Where [7] appears, read: 36 h, read-out: Mortality (%) 36 h, 100 μM, 36 h, adult worms in vitro.
Setting [8] is: 48 h, read-out: Mortality (%) 48 h, 100 μM, 48 h, adult worms in vitro.
Where [9] appears, read: 72 h, read-out: Mortality (%) 72 h, 100 μM, 72 h, adult worms in vitro.
The mark [10] stands for this setting: infected mice treated in adult stage.
The mark [11] stands for this setting: infected mice treated in juvenile stage.

Broadly, the mortality is the percentage killed. For orientation: LC50 means the concentration that kills 50% of the test population. Usually LD50 stands for the dose at which mortality reaches 50%. A high value points to a less toxic substance. One may read the IC50 as the midpoint of a concentration-inhibition curve. Low values mean inhibition by little substance, high ones a need for much substance.

For `O=C(Nc1ccc(Cl)c(Cl)c1)Nc1ccc(Cl)c(Cl)c1` [MMV665852, reference compound], the “Number of worms, Adult” value in data set [1] is on record as 36. Also, the “Worm burden reduction (WBR), Juvenile” value in data set [1] is on record as 20%. For the same compound, in data set [1], the “Number of worms, Juvenile” value was 32. In addition, the mortality at 100 µM in data set [2] (setting [6]), in [2] (setting [7]), in data set [2] (setting [8]) and in [2] (setting [9]) was 100% in each case. In data set [2] (72 h), the median lethal concentration (LC50) was found to be 12.5 ± 2.36 µM. In the data set with Schistosoma mansoni, the “In vivo antischistosomal efficacy (worm burden reduction)” value is “minimal antischistosomal efficacy”.
As for `CN(NC(=O)c1ccc(Cl)c(Cl)c1)c1ccc(Br)cc1` [Compound 5], the median lethal dose (LD50) in the data set “Acute oral toxicity” was 1400 mg/kg; in the data set on healthy mice, >2,000 mg/kg. Further, the LogLD50 in the data set on healthy mice is given as above 3.30. Also, the “Tegumental damage (SEM), female adult worms” value with adult S. japonicum worms (female worms) was “full-thickness sucker ulceration with stromal collapse, atrophic transformation with coalescing vesicles, and advanced tissue disintegration with tegumental wrinkling”. The “Tegumental damage (SEM), male adult worms” value in the data set with adult S. japonicum worms (male worms) is “complete spine ablation in gynecophoric canals, suctorial constriction, and muscular layer protrusion through disrupted tegument”. In addition, the IC50 in data set [3] turned out to be 23.2 ± 1.43 µM; in [4], 43.8 ± 2.53 µM. Further, the “Morphology of worms after treatment in vivo, adult stage” value in [1] (adult stage) was “making the males thicker and shorter”. Moreover, in [1] (adult stage (from 35 dpi), 100 mg/kg/day), the “Worm burden reduction (WBR), Adult” value was 34%. The “Number of worms, Adult” value in [1] is on record as 29. For the same compound, the “Morphology of worms after treatment in vivo, juvenile stage” value in [1] (juvenile stage) is recorded as “marked stunting of male schistosomes”. Moreover, the “Worm burden reduction (WBR), Juvenile” value in data set [1] (100 mg/kg/day) turned out to be 25%. Further, in data set [1], the “Number of worms, Juvenile” value was 30. For the same compound, in [2] (100 μM, 72 h, adult worms in vitro), the “Mortality (%) 72 h” value came out at 100%. For the same compound, the mortality at 100 µM in data set [2] (setting [6]) is 35%; in [2] (setting [7]) it was 65%; in [2] (setting [8]), 95%; in data set [2] (setting [9]) it was above 80%. Further, the 50% lethal concentration (LC50) in [2] (72 h) is 80.2 ± 1.8 µM. Besides, the “Serum GGT” value in data set [5] (setting [10]) is 0.73 ± 0.40 U/L; in data set [5] (setting [11]), 0.73 ± 0.06 U/L. For the same compound, the “Serum TBIL” value was found to be 6.70 ± 3.39 µM in [5] (setting [10]) and 7.48 ± 1.64 µM in [5] (setting [11]). Moreover, the “Serum BUN” value in [5] (setting [10]) was 8.80 ± 0.96 mM; in data set [5] (setting [11]), 9.83 ± 1.43 mM. The “Serum ALT” value in data set [5] (setting [10]) was 313.33 ± 166.21 U/L; in data set [5] (setting [11]) it was 357.67 ± 176.92 U/L. The “Serum AST” value in [5] (setting [10]) is on record as 527.33 ± 303.66 U/L; in data set [5] (setting [11]), 602.33 ± 309.33 U/L. The Nephrotoxicity entry in [5] (infected treated mice, judged from BUN) is “without observable nephrotoxicity”.
